Consider three compounds from patent US6919363B2, “Aryl substituted pyrazoles, triazoles and tetrazoles, and the use thereof” (Euro-Celtique S.A., priority 2000, dated 2005).

Structures are written as SMILES. Where two headings read alike, the source gives them in different places.

For data set [1], the system named is maximal electroshock-induced seizures (MES). The experiment in a line: maximum electroshock seizure test (MES), anticonvulsant activity. Format: in vivo, mouse. An excerpt:
The compounds of the present invention may be tested for in vivo anticonvulsant activity after i.v., p.o. or i.p. injection using a number of anticonvulsant tests in mice, including the maximum electroshock seizure test (MES). Maximum electroshock seizures are induced in male NSA mice weighing between 15-20 g and male Sprague-Dawley rats weighing between 200-225 g by application of current (50 mA, 60 pulses/sec, 0.8 msec pulse width, 1 sec duration, D.C., mice; 99 mA, 125 pulses/sec, 0.8 msec pulse width, 2 sec duration, D.C., rats) using a Ugo Basile ECT device (Model 7801). Mice are restrained by gripping the loose skin on their dorsal surface and saline-coated corneal electrodes are held lightly against the two corneae. Rats are allowed free movement on the bench top and ear-clip electrodes are used. Current is applied and animals are observed for a period of up to 30 seconds for the occurrence of a tonic hindlimb extensor response. A tonic seizure is defined as a hindlimb extension in excess of 90 degrees from the plane of the body. Results are treated in a quantal manner.
The ability of compounds of the present invention to block maximal electroshock-induced seizures (MES) is determined as described earlier.
A compound of the present invention is administered p.o. to mice 30 minutes before the test procedure.

The target in data set [2] is rBIIA isoform of Na+ channels (Rattus norvegicus, UniProt P04775). The experiment in a line: electrophysiological assay, patch-clamp recordings of voltage-sensitive Na+ currents in HEK-293 cells. In kind it is cell-based. The conditions noted are these: rBIIA isoform of sodium channel. How it is done: Cell preparation: HEK-293 (NaIIA-B2) cell line stably expressing the rBIIA isoform of Na^+ channels is established in-house. The cells are cultured using standard techniques, as described previously (Verdoorn, T. A, et al., Neuron 4:919-928 (1990)). For electrophysiology, cells are plated onto poly-D-lysine pre-coated Cellware 35 mm Petri dishes (BIOCOAT, Becton Dickinson) at a density of ˜10^4 cells/dish on the day of re-seeding from confluent cultures. Our experience has been that cells are suitable for recordings for 2-3 days after plating.
Patch-clamp recordings of voltage-sensitive Na^+ currents: Whole-cell voltage-clamp recordings are made using conventional patch-clamp techniques (Hamill et al., Pfluegers Arch. 391:85-100 (1981)) with an Axopatch 200A amplifier (Axon Instruments, Foster City, Calif.). The recording chamber is continuously superfused with the external solution (150 mM NaCl, 5.4 mM KCl, 1.8 mM CaCl2, 1 mM MgCl2, 10 mM HEPES, 10 mM glucose, pH 7.4 adjusted with NaOH, osmolality ˜320 mmol/kg) at a speed of about 1 mL/min. […] Currents are recorded at room temperature (22-25° C.), filtered at 3 kHz with an active 8-pole Bessel filter (Frequency Devices, Haverhill, Mass.), digitized at 10-50 μs intervals, and stored using Digidata 1200 analog/digital interface with Pclamp6/Clampex software (Axon Instruments). […]

[3] abbreviates: iv, mouse, i.v., read-out: MES i.v. ED50.

Chain of rBIIA isoform of Na+ channels (P04775 whole entry, canonical isoform): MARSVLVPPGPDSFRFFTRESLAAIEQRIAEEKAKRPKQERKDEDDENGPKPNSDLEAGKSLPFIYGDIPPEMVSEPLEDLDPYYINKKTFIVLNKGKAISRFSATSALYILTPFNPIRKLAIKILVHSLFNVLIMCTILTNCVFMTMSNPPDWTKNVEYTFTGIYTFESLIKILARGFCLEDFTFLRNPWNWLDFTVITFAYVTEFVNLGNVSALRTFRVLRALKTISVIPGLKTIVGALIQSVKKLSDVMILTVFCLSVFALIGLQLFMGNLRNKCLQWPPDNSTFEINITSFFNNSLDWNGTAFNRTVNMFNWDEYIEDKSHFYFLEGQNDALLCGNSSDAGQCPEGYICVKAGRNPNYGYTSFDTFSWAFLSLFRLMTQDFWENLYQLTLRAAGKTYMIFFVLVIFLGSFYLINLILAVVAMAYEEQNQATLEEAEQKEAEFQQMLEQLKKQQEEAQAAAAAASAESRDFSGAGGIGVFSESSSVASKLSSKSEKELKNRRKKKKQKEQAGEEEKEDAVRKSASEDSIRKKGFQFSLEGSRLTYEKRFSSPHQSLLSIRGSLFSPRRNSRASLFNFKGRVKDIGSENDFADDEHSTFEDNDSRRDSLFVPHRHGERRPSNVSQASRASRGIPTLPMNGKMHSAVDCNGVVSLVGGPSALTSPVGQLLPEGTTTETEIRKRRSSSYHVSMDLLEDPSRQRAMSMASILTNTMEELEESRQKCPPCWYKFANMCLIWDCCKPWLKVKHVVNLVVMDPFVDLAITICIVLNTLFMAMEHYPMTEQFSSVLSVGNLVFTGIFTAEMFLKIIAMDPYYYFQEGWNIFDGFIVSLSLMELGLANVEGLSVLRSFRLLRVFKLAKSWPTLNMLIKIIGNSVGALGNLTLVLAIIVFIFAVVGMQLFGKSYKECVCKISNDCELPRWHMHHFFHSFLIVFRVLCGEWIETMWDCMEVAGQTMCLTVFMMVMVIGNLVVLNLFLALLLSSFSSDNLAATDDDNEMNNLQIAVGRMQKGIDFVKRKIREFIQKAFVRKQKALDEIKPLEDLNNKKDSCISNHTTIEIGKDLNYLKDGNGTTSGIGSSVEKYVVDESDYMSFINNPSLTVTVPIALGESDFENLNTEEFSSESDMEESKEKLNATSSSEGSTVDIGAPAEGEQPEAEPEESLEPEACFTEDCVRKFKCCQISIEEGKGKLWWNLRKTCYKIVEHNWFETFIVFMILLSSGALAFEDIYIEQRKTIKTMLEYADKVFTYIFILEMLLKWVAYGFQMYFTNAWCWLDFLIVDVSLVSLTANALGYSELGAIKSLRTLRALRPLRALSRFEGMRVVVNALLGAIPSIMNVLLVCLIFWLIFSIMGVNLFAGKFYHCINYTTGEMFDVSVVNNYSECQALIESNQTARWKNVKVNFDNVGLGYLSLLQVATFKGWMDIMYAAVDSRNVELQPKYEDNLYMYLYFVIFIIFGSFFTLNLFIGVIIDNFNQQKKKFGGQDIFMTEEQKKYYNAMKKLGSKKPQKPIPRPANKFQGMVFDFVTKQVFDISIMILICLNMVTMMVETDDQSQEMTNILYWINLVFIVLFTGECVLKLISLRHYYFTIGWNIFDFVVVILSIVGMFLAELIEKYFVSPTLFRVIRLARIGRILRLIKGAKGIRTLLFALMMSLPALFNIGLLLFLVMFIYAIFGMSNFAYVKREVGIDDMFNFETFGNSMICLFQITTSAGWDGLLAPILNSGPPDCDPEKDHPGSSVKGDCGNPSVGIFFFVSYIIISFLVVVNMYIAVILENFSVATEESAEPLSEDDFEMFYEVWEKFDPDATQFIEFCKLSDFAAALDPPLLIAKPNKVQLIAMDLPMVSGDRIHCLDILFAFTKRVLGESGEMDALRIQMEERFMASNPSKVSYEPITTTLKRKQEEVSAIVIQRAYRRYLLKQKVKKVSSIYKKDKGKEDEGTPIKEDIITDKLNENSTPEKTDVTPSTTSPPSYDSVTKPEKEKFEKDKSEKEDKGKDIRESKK

As to `NC(=O)c1ccn(-c2ccc(Oc3ccccc3)cc2)n1` [1-(4-Phenoxyphenyl)-1H-pyrazole-3-carboxamide], the melting point is 165 to 167 °C. In addition, in data set [1] (setting [3]), the ED50 is 0.7 mg/kg. In data set [2], this compound yielded a Ki of 350 nM.

`NC(=O)c1ccnn1-c1ccc(Oc2ccccc2)cc1` [1-(4-phenoxyphenyl)-1H-pyrazole-5-carboxamide]: the melting point was in the range of 142 to 144 °C. For the same compound, in data set [1] (setting [3]), the ED50 was 10 mg/kg.

In the case of `O=[N+]([O-])c1ccc(Oc2ccc(-n3cncn3)cc2)cc1` [1-[4-(4-Nitrophenoxy)phenyl]-1H-[1,2,4]triazole], in data set [1] (Mus musculus, po, mice, 30 minutes before the test procedure, read-out: MES po ED50), the ED50 turned out to be 6.6 mg/kg.
